Data: patent US12202816B2 (CALLIDITAS THERAPEUTICS SUISSE SA, priority 2018, dated 2025)

Molecular target: hNOX enzymes
Test: ROS production measurement on hNOX membranes (Amplex Red fluorescence assay, assay 1)
Assay type: biochemical, human
Settings: membranes from CHO or HEK cells overexpressing hNox enzymes; Nox isoform not stated; non linear regression; read-out: Nox inhibitory constant Ki
Method: Reactive oxygen species (ROS) production generated by hNOX enzymes was measured by fluorescence in both cellular and membrane-based assays using the Amplex® Red reagent. In the presence of horseradish peroxidase (HRP), the Amplex® Red reagent (10-acetyl-3,7-dihydroxyphenoxazine, AR), which is a colorless and nonfluorescent derivative of dihydroresorufin, reacts with H2O2 with a 1:1 stoichiometry to produce highly fluorescent resorufin at an excitation and emission wavelengths of 544 nm and 590 nm, respectively.
Membranes from CHO or HEK cells overexpressing hNox enzymes were prepared as previously described (Palicz et al., 2001, J. Biol. Chem, 76, 3090). After resuspension in sonication buffer (11% sucrose, 120 mM NaCl, 1 mM EGTA in PBS, pH 7.4), cells were broken by sonication and centrifuged (200 g, 10 min). The supernatant was layered onto a 17/40% (w/v) discontinuous sucrose gradient and centrifuged (150,000 g for 30 min). Membrane fractions were collected from the 17/40% interface, aliquoted in 10 μl samples and were stored at −80° C. Protein concentration was determined with Bradford reagent. Flavin Adenine Dinucleotide (FAD) (catalog #F6625-500MG), MgCl2 (catalog #M8266-100G), Phosphatidic Acid (PA) (catalog #P3591-50MG) were purchased from Sigma-Aldrich. Horseradish peroxidase (HRP) (catalog #10108090001) was purchased from Roche. NADPH (catalog #A1395, 0500) was purchased from Applichem. Amplex red (AR) (catalog #A22177) was purchased from Invitrogen. 96 well polypropylene and black plates were purchased from Milian (catalog #055529 and #055218, respectively). FLUOstar OPTIMA microplate reader was supplied by BMG Labtech (Germany). Zephyr® Compact Liquid Handling Workstation was supplied by PerkinElmer (Germany).
Assay 1: ROS Production Measurement on hNOX Membranes
All Solutions were placed on ice and protected from light. The final concentration in the 1× hNOX membrane fluorescent assay buffer were PBS pH7, 6 μM FAD, 15 μM PA, 1 mM MgCl2, 12.5 μM AR, 0.02 u/ml, 125 ng membranes, 1.5 μg of cofactors and 30 μM NADPH. The NADPH was dissolved in water at a concentration of 12 mM and was transferred in a metal transfer plate kept at 4° C. The NADPH was added to the assay plate to initiate the reaction just before the measurement.
Serial dilution (1:3, 10 serial dilution) of the compounds was performed in 100% DMSO in 96 well polypropylene plate—Row B—H Column 1-10, Row A, Column 1-10 contained reference compound. Starting concentration was 10^−2 M (10 mM). Final concentration in assay was 10^−4 M (100 μM). Compounds were diluted twice in PBS buffer by transferring 30 μl/well of PBS into 30 μl/well compounds sample in DMSO using Zephyr® Compact Liquid Handling Workstation. Control wells-columns 1 and 12-contained 60 μl DMSO in 50% PBS pH7.
Reaction mixture is dispensed using Zephyr® Compact Liquid Handling Workstation. 90 μl of mix with membrane were dispensed into 96 well black plates—Column 2-11, Column 1 Row A-D, Column 12 Row E-H. 90 μl of control mix were dispensed into assay plate—Column 1 Row E-H, Column 12 Row A-D, which are wells for measuring background signal. 2 μl of compounds were dispensed into each well of assay plate using Zephyr® Compact Liquid Handling Workstation. The reaction mixture with compounds was incubated in assay plates for 20 min at 37° C. in a Titramax microplate incubator with gentle agitation. 10 μl of NADPH is dispensed to the assay plate. Fluorescence reading was recorded with the FLUOstar OPTIMA microplate reader for 10 min at 37° C. (8 cycles, 1 cycle duration 55 sec).
The Table 14 below summarizes the inhibition of NOX activity as measured by the above described assay 1 and expressed by their inhibitory constant calculated by non linear regression analysis using GraphPad Prism Software (GraphPad Software Co., San Diego, CA): […]

Ki: 226 nM
Structure (SMILES): COc1cncc(-c2ccc3c(cc(-c4cnc5c(c4)OCCN5C)n3C)c2Cl)c1 [Example 119]
